In patent US11999782B2, “Therapeutic agents for the treatment of diseases associated with undesired cell proliferation” (Fundació Privada Institutció Catalana de Recerca I Estudis …, priority 2009, dated 2024):

Tests used:
[1] = tested on: normal human neuroprogenitors; assay: Self-renewal assay of normal human neuroprogenitor neurospheres; assay type: cell-based; conditions: 100 pM TGFβ1 or 20 ng/ml LIF, 7 days
Description: FIG. 8. Effect of TGFβ on the capacity of self-renewal of normal human neuroprogenitors. (A) Immunocytochemistry of the indicated markers was performed in human neuroprogenitor neurospheres. (B) Neurospheres of the sample of GBM1 and of human neuroprogenitors were incubated with the indicated members of the 100 pM TGFβ family for 3 hours and the mRNA levels of LIF were determined. (C, D) Neurosphere cells of normal human neuroprogenitors were incubated in the same conditions that have been described above in FIG. 1D in the presence of 100 pM TGFβ1 or 20 ng/ml LIF for 7 days and the number of newly formed neurospheres (C) and the number total of cells (D) were determined.
The U373MG and A172 cells were a generous gift from J. Rich and D. Bigner and were cultured in DMEM with 10% fetal bovine serum (FBS). The primary culture of tumor cells (PCTC) and the GBM neurospheres were generated as described (Bruna et al., (2007) Cancer Cell 11, 147-160; Gunther et al., (2008) Oncogene. May 1; 27(20):2897-909). Briefly, the samples of tumors were processed in the 30 minutes after the surgical resection. The ground pieces of the samples of human gliomas were digested with 200 U/ml collagenase I (Sigma) and 500 U/ml of DNase I (Sigma) in PBS for 2 hours at 37° C. and with constant vigorous stirring. The suspension of individual cells was filtered through a 70 μm cell filter (BD Falcon) and washed with PBS. Finally, the cells were resuspended and subsequently cultured in DMEM with 10% FBS, for the culture of PCTCs, or in neurosphere medium in the case of the GBM neurospheres. The neurospheres of normal human neuroprogenitors were generated from human embryonic cerebral cortex tissue (12-16 weeks after the conception) collected after voluntary abortions. The samples were processed and cultured as described (Poltavtseva et al. (2002) Brain Res Dev Brain Res 134, 149-154). The neurosphere medium consists of neurobasal medium (Gibco) supplemented with B27 (Gibco), L-glutamine (Gibco), penicillin/streptomycin, and growth factors (20 ng/mL EGF and 20 ng/mL FGF-2 (Peprotech)).
The self-renewal of the neurospheres was evaluated by seeding an identical number of cells at a very low density in wells of a 96-well plate. The cells were treated, in the absence of growth factors, with the indicated compounds and the total number of new neurospheres formed after 7 days in culture was counted (Lee et al. (2008) Cancer Cell 13, 69-80; Reynolds and Weiss, (1996) Dev Biol 175, 1-13; Seaberg and van der Kooy, (2002) J Neurosci 22, 1784-1793).
It was decided to assess whether this effect was specific to tumor cells or was also present in normal neuroprogenitor cells. To answer this question, neuroprogenitor cells were obtained from samples of human fetal cerebral cortex (from 12 to 16 weeks after conception). As has been previously described (Carpenter et al., 1999, Exp Neurol, 158: 265-278; Poltavtseva et al., 2002, Brain Res Dev Brain Res, 134: 149-154; Wright et al., 2003, J Neurochem, 86: 179-195), human neuroprogenitors generated neurospheres when they were grown in serum-free medium supplemented with EGF and FGF and these neurospheres expressed Musashi-1, Sox2 and Nestin similarly to GBM neurospheres (FIG. 8A). First, it was determined if TGFβ induced LIF in normal human neuroprogenitors. […] In fact, the neurospheres treated with TGFβ were smaller and the total number of cells had decreased due to the presence of TGFβ (FIG. 8C, 8D). On the other hand, LIF increased the number and size of the newly formed neurospheres as well as the total number of cells (FIG. 8C, 8D) according to previous articles (Bauer and Patterson, 2006; Wright et al., 2003). Thus, LIF has the same effect on the self-renewal in GBM and normal neurospheres. On the contrary, there is a difference in the effect of TGFβ on the capacity for self-renewal of normal and tumor neurospheres due to the incapacity of TGFβ to induce LIF normal in neuroprogenitors.

[2] = tested on: GBM neurospheres; assay: Differentiation of GBM neurospheres (neuroprogenitor markers, adhesion); assay type: cell-based, human; conditions: 7 days without EGF or FGF; for adhesion to the culture plate / morphology versus control cells: GBM neurospheres, poly-L-lysine
Description: FIG. 7. TGFβ and LIF prevent the differentiation of GBM neurospheres. (A) Immunocytochemistry of the indicated proteins was performed in neurospheres derived from GBM1 treated with 100 pM TGFβ1 or 20 ng/ml LIF for 7 days in the absence of growth factors and the last 3 days on slides coated with poly-L-lysine. (B) The mRNA levels of Musashi-1 (Msi-1), Sox2 and Nestin were determined in GBM1 neurospheres after 7 days of the indicated treatments without growth factors. The RNA levels of 18S were used as an internal normalization control.
The immunocytochemistry of neurospheres and differentiated neurospheres was performed as described (Geshwind et al., 2001) using the following antibodies: anti-nestin (Chemicon), anti-GFAP (Dako), anti-TuJ1 (Chemicon), anti-04 (Chemicon), anti-Sox2 (Chemicon), anti-α-tubulin (Sigma). The nuclei were counterstained with 4′,6-diamino-2-phenylindole (DAPI).
qRT-PCR was performed using Taqman probes from Applied Biosystems, according to the manufacturer's recommendations. The reactions were carried out in a ABI 7000 sequence detector (Perkin Elmer) and the results were expressed as the fold change calculated by means of the DDCt method relative to the control sample or the first quantified sample. The ribosomal unit of 18S or β-actin were used as internal normalization controls.
The neurospheres derived from GBMs grown in the absence of growth factors and seeded in poly-L-lysine-coated plates tend to differentiate losing the expression of the neuroprogenitor markers Musashi-1, Sox2 and Nestin, and being adhered to the culture plate. It was decided to evaluate the effect of TGFβ and LIF on this differentiation process. The neurospheres were cultured in the presence of TGFβ or LIF without EGF or FGF for 7 days and subsequently processed for immunohistochemical staining and qRT-PCR assays for determining the levels of the neuroprogenitor markers Musashi-1, Sox2 and Nestin.

Substance | number of newly formed neurospheres (normal neuroprogenitors) [1] | size of neurospheres (normal neuroprogenitors) [1] | total number of cells (normal neuroprogenitors) [1] | expression of Musashi-1, Sox2 and Nestin (immunocytochemistry, qRT-PCR) ([2]; GBM1 neurospheres, 100 pM TGFβ1 or 20 ng/ml LIF) | adhesion to the culture plate / morphology versus control cells [2]
LIF: recombinant leukemia inhibitory factor, an IL-6 type cytokine (Chemicon) | increased | increased | increased | maintained the expression | adhered less to the culture plate
TGFβ: TGFβ1 (R&D Systems), used at 100 pM according to the figure legends | did not increase | smaller | decreased | – | adhered less to the culture plate
